Data set [1] in a line: in vitro. The following applies: African green monkey, CC50. The data set is classed as cell-based. The method, then: (§1) Potential cytotoxic effects of the compounds were evaluated in uninfected quiescent Vero-B or Vero-M cells. Cells were seeded at 5×10^4 cells/well in a 96-well plate in the presence of two-, three- or five-fold serial dilutions (ranging from 50 μg/mL-0.0038 μg/mL, 50 μg/mL-0.0076 μg/mL, and 50 μg/mL-0.00013 μg/mL, respectively) of compound and incubated for 4 to 7 days. Culture medium was discarded and 100 μL 3-(4,5-dimethylthiazol-2-yl)-5-(3-carboxy-methoxyphenyl)-2-(4-sulfophenyl)-2H-tetrazolium/phenazinemethosulfate (MTS/PMS; Promega, Leiden, The Netherlands) in PBS was added to each well. Following a 2-hour incubation period at 37° C., the optical density was determined at 498 nm. Cytotoxic activity was calculated using the following formula: % cell viability=100×(ODCompound/ODCC), where ODCompound and ODCC correspond to the optical density at 498 nm of the uninfected cell cultures treated with compound and that of uninfected, untreated cell cultures, respectively. The 50% cytotoxic concentration (i.e., the concentration that reduces the total cell number with 50%; CC50) was calculated using linear interpolation.

Data set [2] concerns uninfected quiescent Vero-B or Vero-M cells. As to the kind of experiment: in vitro. The class given is cell-based. The following applies: African green monkey. The method, then:
as §1

The subject of data set [3] is DENV-2 16681 strain. The experiment in a line: DENV-2 antiviral assay (eGFP fluorescence, Vero cells). The class given is cell-based, Dengue virus. The conditions noted are these: DENV-2 16681 eGFP, MOI 0.5, 3 days. The method, boiled down: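 eGFP-labelled DENV-2 16681 infected Vero cells (2500/well, MEM + 2% FCS) at MOI 0.5, one day after seeding onto 9-step 5-fold compound dilutions. After 3 days at 37 °C, eGFP fluorescence read at 488 nm; % inhibition normalised to virus and cell controls, EC50 by linear interpolation.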

Turning to `COc1cc(NC(C(=O)c2c[nH]c3cc(F)ccc23)c2ccc(Cl)cc2OC)cc(S(C)(=O)=O)c1` (single isomer, unassigned) [Compound 1A, 2-(4-chloro-2-methoxyphenyl)-1-(6-fluoro-1H-indol-3-yl)-2-((3-methoxy-5-(methylsulfonyl)phenyl)amino)ethanone], the cytotoxic concentration (CC50) in data set [1] came out at 8 µM; in data set [2], 11 µM. This molecule also displayed an EC50 in data set [3] of 0.26 nM.

Regarding `COc1cc(NC(C(=O)c2c[nH]c3c(C)c(F)ccc23)c2ccc(Cl)cc2OC)cc(S(C)(=O)=O)c1` (single isomer, unassigned) [Compound 2A, 2-(4-chloro-2-methoxyphenyl)-1-(6-fluoro-7-methyl-1H-indol-3-yl)-2-((3-methoxy-5-(methylsulfonyl)phenyl)amino)ethanone], the CC50 in data set [1] was determined as 7.3 µM; in data set [2], 11 µM. In data set [3], this molecule gave an EC50 of 0.26 nM.

Take `COc1cc(NC(C(=O)c2c[nH]c3cc(OC)c(C)cc23)c2ccc(Cl)cc2OC)cc(S(C)(=O)=O)c1` (single isomer, unassigned) [Compound 4A, 2-(4-chloro-2-methoxyphenyl)-2-((3-methoxy-5-(methyl-sulfonyl)phenyl)amino)-1-(6-methoxy-5-methyl-1H-indol-3-yl)ethanone]: the half-maximal cytotoxic concentration (CC50) was found to be 4.3 µM in data set [1] and 6.6 µM in data set [2]. The molecule further yielded an EC50 in data set [3] of 0.27 nM.

Turning to `COc1cc(NC(C(=O)c2c[nH]c3cc(OC)c(F)cc23)c2ccc(Cl)cc2OC)cc(S(C)(=O)=O)c1` (single isomer, unassigned) [Compound 5A, 2-(4-chloro-2-methoxyphenyl)-1-(5-fluoro-6-methoxy-1H-indol-3-yl)-2-((3-methoxy-5-(methylsulfonyl)phenyl)amino)ethanone], the midpoint of cytotoxicity in data set [1], the CC50, lay at 9.2 µM. It took 0.41 nM to reach a half-maximal effect in data set [3] (EC50).

Consider `COc1cc(NC(C(=O)c2c[nH]c3c(C)c(OC)ccc23)c2ccc(Cl)cc2OC)cc(S(C)(=O)=O)c1` (single isomer, unassigned) [Compound 6A, 2-(4-chloro-2-methoxyphenyl)-2-((3-methoxy-5-(methyl-sulfonyl)phenyl)amino)-1-(6-methoxy-7-methyl-1H-indol-3-yl)ethanone], for which the CC50 in data set [1] and in data set [2] was above 92 µM throughout. This molecule returned an EC50 in data set [3] of 0.068 nM.

Broadly, the CC50 is the concentration at which the toxic effect on the cells reaches its halfway point. For orientation: EC50 means the concentration needed to bring the measured effect to its halfway point.

The values above are taken from patent US12172959B2, “Mono- or di-substituted indole derivatives as dengue viral replication inhibitors” (priority 2015, dated 2024).
